Test results as given in patent publication US3968219A, “Hydroxy phenylbutazone derivatives and their preparation” (Schering Aktiengesellschaft, priority 1974, dated 1976).

How the values were obtained:
[1] = tested on: stripped skin on the backs of volunteers; assay: vasoconstriction test (topical anti-inflammatory activity on stripped, hyperemic skin); assay type: in vivo; conditions: for vasoconstriction, colour value (normal skin = 100, untreated stripped skin = 0): 50 mg topical; for activity in vasoconstriction test compared with hydroxyphenylbutazone: topical, Table I, in words
Procedure: The topical anti-inflammatory activity of the novel hydroxyphenylbutazone derivatives can be determined employing the conventional vasoconstriction test as follows: On the backs of volunteers for the experiment, the stratum corneum was abraded by the application and tearing off of adhesive tape, conducted 20 times at the same spot, thus producing a pronounced hyperemia. Within the stripped area, respectively 50 mg of ointment containing in each case 0.1% and 0.01%, respectively, of the substance to be tested or of the reference substance in a water-oil base was applied on marked areas. The extent of the vasoconstriction was determined one, four, and eight hours after application. In order to evaluate the vasoconstriction, which is a representative syndrome of topical anti-inflammatory activity the color values of the untreated stripped skin and the treated stripped skin were determined and compred with the color value of the normal skin, wherein the color value of the normal skin was set to be equal to 100 and the color value of the untreated stripped skin was fixed at 0. Minor, moderate, and high-grade vasoconstriction was evaluated with values between 0 and 100. The results are shown in Table I below in which two compounds of this invention (III, IV) were compated with hydroxyphenylbutazone (I) and fluorocortolone.

[2] = tested on: right ear of male rats (edema); assay: Edema test, Tonelli method (croton oil ear edema); assay type: in vivo; conditions: in pyridine/water/ether/croton oil irritant, 3 hours after application
Procedure: The anti-inflammatory activity of the novel hydroxyphenylbutazone derivatives upon topical application can also be determined in accordance with the Tonelli method, as follows:
The compound to be tested is dissolved in an irritant consisting of 4 parts of pyridine, 1 part of distilled water, 5 parts of ether, and 10 parts of a 4% ether croton oil solution. Felt strips attached to the insides of a slide tweezers are saturated with this text solution and pressed under slight pressure for 15 seconds onto the right ear of male rats weighing 100-160 g.
The left ear remains untreated and serves as control. Three hours after application, the animals are sacrificed and disks of a size of 9 mm. are punched out of their ears. The weight difference between the disk from the right ear and that of the left ear is a measure for the thus-formed edema.
The concentrations of effective agent (ED50) are determined which, when employed, cause a 50% reduction in the formation of edema.

Structure (SMILES) | vasoconstriction, colour value (normal skin = 100, untreated stripped skin = 0) ([1]; 0.01% ointment, 1 hour) | vasoconstriction, colour value (normal skin = 100, untreated stripped skin = 0) ([1]; 0.01% ointment, 4 hours) | vasoconstriction, colour value (normal skin = 100, untreated stripped skin = 0) ([1]; 0.01% ointment, 8 hours) | vasoconstriction, colour value (normal skin = 100, untreated stripped skin = 0) ([1]; 0.1% ointment, 1 hour) | vasoconstriction, colour value (normal skin = 100, untreated stripped skin = 0) ([1]; 0.1% ointment, 4 hours) | vasoconstriction, colour value (normal skin = 100, untreated stripped skin = 0) ([1]; 0.1% ointment, 8 hours) | activity in vasoconstriction test compared with hydroxyphenylbutazone [1] | ED50 (concentration causing 50% reduction in the formation of edema) [2] [µg/mL]
CCCCC1C(=O)N(c2ccccc2)N(c2ccc(OC(=O)CCCCC(=O)Oc3ccc(N4C(=O)C(CCCC)C(=O)N4c4ccccc4)cc3)cc2)C1=O (stereo not shown) [III, Adipic Acid Bis[4-(4-butyl-3,5-dioxo-2-phenylpyrazolidinyl)-phenyl Ester]] | 34 | 66 | 70 | 44 | 72 | 78 | substantially more active than hydroxyphenylbutazone | 2100
C[C@@H]1C[C@H]2[C@@H]3C[C@H](F)C4=CC(=O)C=C[C@]4(C)[C@H]3[C@@H](O)C[C@]2(C)[C@H]1C(=O)CO [II, 6α-Fluoro-11β,21-dihydroxy-16α-methyl-1,4-pregnadiene-3,20-dione] | 15 | 65 | 85 | 35 | 75 | 85 |  | 3400
CCCCC1C(=O)N(c2ccccc2)N(c2ccc(O)cc2)C1=O (stereo not shown) [I, 4-Butyl-1-(4-hydroxyphenyl)-2-phenyl-3,5-pyrazolidinedione] | 18 | 25 | 24 | 15 | 35 | 33 |  | 8000
CCCCC1C(=O)N(c2ccccc2)N(c2ccc(OC(=O)CCCCCC(=O)Oc3ccc(N4C(=O)C(CCCC)C(=O)N4c4ccccc4)cc3)cc2)C1=O (stereo not shown) [IV, Pimelic Acid Bis[4-(4-butyl-3,5-dioxo-2-phenylpyrazolidinyl)-phenyl Ester]] |  | 44 | 49 |  | 65 | 67 | substantially more active than hydroxyphenylbutazone | 4200
